PMC3989846 (Malaria Journal, 2014)
Like-named read-outs stand apart in the source and are kept apart here.

Assay: Liver tissue distribution pharmacokinetics after single intravenous or intragastric dose
Type: in vivo, male ICR mice
Conditions: for Kp: liver/plasma, read-out: AUCinf ratio (liver/plasma); for half-life: read-out: t1/2 elimination (converted)
Description: PK studies were performed using both intravenous (IV) and intragastric (IG) administration. For each time point to be acquired, three male ICR mice per time-point, aged seven weeks, were dosed at either PQ or TQ at 5 mg/kg (IV) or 20 mg/kg (IG). Drug vehicle for IV studies was 0.9% saline solution, and the formulated drugs were administered in a volume of 100 μL/20 g of body weight. For IG dosing, the drug vehicle was 0.5% HECT, administered at 100 μL/20 g. At each time point, plasma and liver samples were collected. Whole blood was collected by cardiac puncture. […] Following the separation of appropriate aliquots, plasma was obtained from the whole blood via centrifugation. All liquid and tissue samples were immediately preserved on dry ice and lately stored at -80°C until analytical work was performed.
Blank liver homogenate was prepared by adding 5 mL of water for each gram of liver, then the mixture was homogenized using an ultra-sonication probe (VCX 750, Sonics & Materials, Inc., Newtown, CT). […] The serial dilutions for analysis also included the preparation of 4–5 QC samples at a low range point and a high range point (generally 10 ng/mL and 100 ng/mL, respectively). Once the standard curve dilutions were prepared, a 100 μL aliquot was removed and extracted with 200 μL acetonitrile. The extracted samples were centrifuged at 10,000 rpm for 10 min and the supernatant was removed for analysis by LC-MS/MS. Sample drug concentrations were first interpolated from the standard curve, then multiplied by a factor of 6 to account for the drug levels present in the liver prior to dilution with water for homogenization.
Chromatography was performed using a Surveyor pump (Thermo Scientific, Waltham, MA) with Waters XTerra MS C18 50 mm × 2.1 mm id, 3.5 μm particle size columns (Waters Corp., Milford, MA). Mobile phase consisted of a water/0.1% formic acid (Solvent A)/acetonitrile/0.1% formic acid (Solvent B) gradient. […] Flow rate was 300 μL/min. Samples were injected using an HTC PAL autosampler (LEAP Technologies, Carrboro, NC). Tandem mass spectrometry was performed using a TSQ Quantum AM (Thermo Scientific).
Drug concentrations were generated for each sample taken from animals dosed with both test drugs. A measured plasma and liver drug concentration vs. time curve was produced, in graphic and tabular form, for each subject on both linear/linear and log/linear scales, for the parent compound. Mean plasma drug concentration vs. time curves were also prepared separately. For the determination of initial approach to PK parameters of TQ and PQ in plasma and liver tissues after systemic application, a non-compartmental analysis was performed using Phoenix (version 6.1; Pharsight Corp., Mountain View, CA). Maximum plasma and liver concentration (Cmax), and time to maximum concentration (tmax) of TQ and PQ were obtained from the plasma and liver drug concentration-time curves. The elimination half-life (t1/2) was calculated from In2/kel, which is the elimination rate constant calculated from the log concentration-time plot. The area under the curve (AUC) and the area under the first moment curve (AUMC) were determined by the linear trapezoidal rule with extrapolation to infinity based on the concentration of the last time point divided by the terminal rate constant. Mean clearance rate (CL) was determined by dividing the dose by the AUCinf for intravenous injection for plasma samples. Absolute bioavailability was calculated by taking the dose-corrected area under the curve (AUC) from non-intravenous dosing divided by the AUC derived from intravenous dosing. Mean residence time (MRT) was determined by dividing the area under the first moment curve (AUMC) by AUC. The volume of the central compartment (Vz) and volume of the tissue compartment (Vz/F) were calculated as the product of CL and MRT.

[1] = male, ICR, mouse, po, intragastric 20 mg/kg, liver
[2] = male, ICR, mouse, intravenous 5 mg/kg, liver

COc1cc(C)c2c(Oc3cccc(C(F)(F)F)c3)c(OC)cc(NC(C)CCCN)c2n1 (stereo not shown) [Tafenoquine, tafenoquine]
Cmax (ICR, mouse, intravenous 5 mg/kg, liver, male mice (head: μg/mL or g), read-out: Cmax): 44800 ± 30000 ng/g
AUCinf ratio (liver/plasma) (intragastric 20 mg/kg): 48.91 ± 22.67
Cmax (intragastric 20 mg/kg, liver): 56.90 ± 26.09 µg/mL
AUCinf ratio (liver/plasma) (intravenous 5 mg/kg, 5 mg/kg): 87.24 ± 44.29
AUClast (intravenous 5 mg/kg, liver (μg · h/mL or g)): 2493.82 ± 1361.10 µg·h/g
AUCinfininty (intravenous 5 mg/kg, liver (μg · h/mL or g), 5 mg/kg): 2544.96 ± 1348.03 µg·h/g
AUCinfininty (intravenous 5 mg/kg, liver (μg · h/mL or g), listed as TQ, 5 mg/kg): 2544.96 µg·h/g
Kp (male, ICR, mouse, po, intragastric 20 mg/kg): 48.9
Kp (male, ICR, mouse, intravenous 5 mg/kg): 87.2
MRT [1]: 88.7 ± 13 h
Tmax [1]: 1.17 ± 0.76 h
half-life [1]: 75.5 ± 12.1 h
MRT [2]: 66.1 ± 19.2 h
Tmax [2]: 3.69 ± 2.29 h
half-life [2]: 70 ± 4.35 h
Cmax (male, ICR, mouse, single oral dose 20 mg/kg, liver, read-out: Cmax): 56900 ng/g
Cmax of orally dosed TQ, fold higher than PQ in liver tissue (oral, liver): ~7 fold
elimination half-life of oral TQ, fold longer than oral PQ in the liver (oral, liver): 17.6 fold
AUCinf (single oral dose 20 mg/kg, liver): 5391.86 µg·h/g
